Reference: ChEMBL document CHEMBL1129845, “Digitalis-like compounds: Synthesis and biological evaluation of 3-(aminoalkylthio) derivatives” (Bioorg Med Chem Lett, 1997)
Active and inactive are the calls of the source. The calls are words filed in the database; no cut-off is given here.

Species on record: Canis lupus familiaris
Assay: Displacement of [3H]ouabain binding to Na+,K+ -ATPase receptor isolated from dog kidney; NA = <50% displacement at 10e-5 M

With `C[C@]12CC[C@H](S)C[C@H]1CC[C@@H]1[C@@H]2CC[C@]2(C)[C@@H](C3=CC(=O)OC3)CC[C@@H]12` the “-Log IC50” value was “inactive”.

Target: not listed separately
Assay: Displacement of [3H]ouabain binding from Na+,K+ -ATPase receptor isolated from dog kidney
Set-up: species or system Canis lupus familiaris

Point of comparison: `C[C@]12CC[C@H](S)C[C@H]1CC[C@@H]1[C@@H]2CC[C@]2(C)[C@@H](C3=CC(=O)OC3)CC[C@]12O`, “-Log IC50” value 6. Against it:
- C[C@]12CC[C@H](SCCCN3CCNCC3)C[C@H]1CC[C@@H]1[C@@H]2CC[C@]2(C)[C@@H](C3=CC(=O)OC3)CC[C@]12O — higher, 6.5
- C[C@]12CC[C@H](SCCN3CCCC3)C[C@H]1CC[C@@H]1[C@@H]2CC[C@]2(C)[C@@H](C3=CC(=O)OC3)CC[C@]12O — higher, 6.7
- CN(C)CCCS[C@H]1CC[C@@]2(C)[C@H](CC[C@@H]3[C@@H]2CC[C@]2(C)[C@@H](C4=CC(=O)OC4)CC[C@]32O)C1 — higher, 7
- C[C@]12CC[C@H](O)C[C@H]1CC[C@@H]1[C@@H]2CC[C@]2(C)[C@@H]([C@@H]3COC(=O)C3)CC[C@]12O — lower, 5.6
- C[C@]12CC[C@H](SCCCN)C[C@H]1CC[C@@H]1[C@@H]2CC[C@]2(C)[C@@H](C3=CC(=O)OC3)C[C@H]3O[C@]132 — higher, 6.6
- C[C@]12CC[C@H](SCC[N+](C)(C)C)C[C@H]1CC[C@@H]1[C@@H]2CC[C@]2(C)[C@@H](C3=CC(=O)OC3)CC[C@]12O — higher, 7
- C[C@]12CC[C@H](SCCCN3CCCC3)C[C@H]1CC[C@@H]1[C@@H]2CC[C@]2(C)[C@@H](C3=CC(=O)OC3)CC[C@]12O — higher, 6.8
- C[C@]12CC[C@H](O)C[C@H]1CC[C@@H]1[C@@H]2CC[C@]2(C)[C@@H]([C@H]3COC(=O)C3)CC[C@]12O — lower, 5.8
- C[C@]12CC[C@H](O)C[C@H]1CC[C@@H]1[C@@H]2CC[C@]2(C)[C@@H](C3=CC(=O)OC3)C[C@H]3O[C@]132 — higher, 6.6
- C[C@]12CC[C@H](O)C[C@H]1CC[C@@H]1[C@@H]2CC[C@]2(C)[C@@H](C3=CC(=O)OC3)CC[C@@H]12 — lower, 5.2
- C[C@]12CC[C@H](O)C[C@H]1CC[C@@H]1[C@@H]2CC[C@]2(C)[C@@H](C3=CC(=O)OC3)CC[C@]12O [DIGITOXIGENIN] — higher, 7.2
- C[C@]12CC[C@H](SCCCN)C[C@H]1CC[C@@H]1[C@@H]2CC[C@]2(C)[C@@H](C3=CC(=O)OC3)CC[C@]12O — higher, 7.1
- C[C@]12CC[C@H](SCCCN)C[C@H]1CC[C@@H]1[C@@H]2CC[C@]2(C)[C@@H]([C@H]3COC(=O)C3)CC[C@]12O — higher, 6.5
- C[C@]12CCC3C(CC[C@@H]4C[C@@H](SCCCN)CC[C@]34C)C1=CC[C@@H]2C1=CC(=O)OC1 (stereo partly drawn) — lower, 5.8
- C[C@]12CC[C@H](SCCCN)C[C@H]1CC[C@@H]1[C@@H]2CC[C@]2(C)[C@@H]([C@@H]3COC(=O)C3)CC[C@]12O — higher, 6.5
- C[C@]12CC[C@H](S)C[C@H]1CC[C@@H]1[C@@H]2CC[C@]2(C)[C@@H]([C@H]3COC(=O)C3)CC[C@]12O — lower, 5.5
- C[C@]12CC[C@H](S)C[C@H]1CC[C@@H]1[C@@H]2CC[C@]2(C)[C@@H](C3=CC(=O)OC3)C[C@H]3O[C@]132 — lower, 5.6
- C[C@]12CC[C@H](SCCCN)C[C@H]1CC[C@@H]1[C@@H]2CC[C@]2(C)[C@@H](C3=CC(=O)OC3)CC[C@@H]12 — lower, 5.8
- C[C@]12CC[C@H](SCCN)C[C@H]1CC[C@@H]1[C@@H]2CC[C@]2(C)[C@@H](C3=CC(=O)OC3)CC[C@]12O — higher, 7.5
- C[C@]12CC[C@H](S)C[C@H]1CC[C@@H]1[C@@H]2CC[C@]2(C)[C@@H]([C@@H]3COC(=O)C3)CC[C@]12O — lower, 5
- C[C@]12CCC3C(CC[C@@H]4C[C@@H](O)CC[C@]34C)C1=CC[C@@H]2C1=CC(=O)OC1 (stereo partly drawn) — lower, 5.5
